For data set [1], the target named is T1, BSA (Bos taurus, UniProt P02769). Briefly: in vitro. The conditions noted are these: bovine.
A short description of data set [2]: Drug binding to control insect cell membranes by RED. The conditions noted are these: 0.2 mg/mL total protein in the membrane.
A further data set has as its target T2, UGT2B17 (Homo sapiens, UniProt O75795).
T2 sequence (O75795 24-530): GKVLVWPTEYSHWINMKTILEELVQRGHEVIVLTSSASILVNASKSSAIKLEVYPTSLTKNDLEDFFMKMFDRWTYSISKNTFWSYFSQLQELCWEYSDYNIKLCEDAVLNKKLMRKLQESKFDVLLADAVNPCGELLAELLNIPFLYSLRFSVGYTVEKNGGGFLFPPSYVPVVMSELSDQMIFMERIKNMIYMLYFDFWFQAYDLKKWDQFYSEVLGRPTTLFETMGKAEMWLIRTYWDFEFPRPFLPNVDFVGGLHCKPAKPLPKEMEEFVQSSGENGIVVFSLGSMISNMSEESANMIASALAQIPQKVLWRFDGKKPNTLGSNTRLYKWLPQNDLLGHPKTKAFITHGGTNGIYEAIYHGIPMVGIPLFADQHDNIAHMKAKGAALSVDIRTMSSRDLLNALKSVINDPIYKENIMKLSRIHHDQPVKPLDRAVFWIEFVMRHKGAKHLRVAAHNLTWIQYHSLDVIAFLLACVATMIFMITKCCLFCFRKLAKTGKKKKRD

Another data set has as its target T3, UGT1A8 (Homo sapiens, UniProt Q9HAW9).
T3 sequence (Q9HAW9 26-530): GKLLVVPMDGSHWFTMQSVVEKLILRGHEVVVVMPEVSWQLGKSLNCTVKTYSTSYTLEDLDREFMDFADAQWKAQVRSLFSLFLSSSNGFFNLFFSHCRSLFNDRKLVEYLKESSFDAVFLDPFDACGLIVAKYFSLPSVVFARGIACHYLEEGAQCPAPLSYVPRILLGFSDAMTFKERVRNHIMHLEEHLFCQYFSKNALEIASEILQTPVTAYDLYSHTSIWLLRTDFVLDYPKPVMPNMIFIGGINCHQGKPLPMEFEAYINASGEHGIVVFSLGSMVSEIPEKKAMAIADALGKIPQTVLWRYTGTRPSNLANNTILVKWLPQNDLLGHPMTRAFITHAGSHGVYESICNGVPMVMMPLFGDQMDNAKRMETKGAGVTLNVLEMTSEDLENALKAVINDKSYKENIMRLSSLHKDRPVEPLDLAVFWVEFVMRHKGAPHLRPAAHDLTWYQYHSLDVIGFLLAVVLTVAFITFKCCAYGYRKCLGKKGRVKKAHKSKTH
Briefly: UGT1A8-catalyzed glucuronidation, enzyme kinetics.

Data set [3] concerns the target T1, BSA. Further details: purchased Sigma-Aldrich (St. Louis, MO, USA). The conditions noted are these: 2% BSA; 25 (Walsky et al. 2012); cited from earlier work.
Another data set concerns the target T4, UGT1A1 (Homo sapiens, UniProt P22309).
T4 sequence (P22309 26-533): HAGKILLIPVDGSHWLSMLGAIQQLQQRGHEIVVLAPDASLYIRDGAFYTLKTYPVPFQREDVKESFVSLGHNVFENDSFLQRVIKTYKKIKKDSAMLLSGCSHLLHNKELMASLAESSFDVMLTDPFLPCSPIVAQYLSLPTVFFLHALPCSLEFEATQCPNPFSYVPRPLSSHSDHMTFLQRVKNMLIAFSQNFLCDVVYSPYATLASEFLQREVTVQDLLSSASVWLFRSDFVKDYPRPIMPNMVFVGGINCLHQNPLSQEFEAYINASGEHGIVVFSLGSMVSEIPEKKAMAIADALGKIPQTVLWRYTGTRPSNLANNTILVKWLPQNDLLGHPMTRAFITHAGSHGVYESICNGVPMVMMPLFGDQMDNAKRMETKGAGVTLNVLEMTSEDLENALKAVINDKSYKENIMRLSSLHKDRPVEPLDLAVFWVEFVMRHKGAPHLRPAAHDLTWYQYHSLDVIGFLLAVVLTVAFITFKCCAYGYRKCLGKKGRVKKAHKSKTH
The data set is described as follows: UGT1A1-catalyzed glucuronidation, enzyme kinetics.

A further data set concerns the target T5, UGT1A6 (Homo sapiens, UniProt P19224).
T5 sequence (P19224 27-532): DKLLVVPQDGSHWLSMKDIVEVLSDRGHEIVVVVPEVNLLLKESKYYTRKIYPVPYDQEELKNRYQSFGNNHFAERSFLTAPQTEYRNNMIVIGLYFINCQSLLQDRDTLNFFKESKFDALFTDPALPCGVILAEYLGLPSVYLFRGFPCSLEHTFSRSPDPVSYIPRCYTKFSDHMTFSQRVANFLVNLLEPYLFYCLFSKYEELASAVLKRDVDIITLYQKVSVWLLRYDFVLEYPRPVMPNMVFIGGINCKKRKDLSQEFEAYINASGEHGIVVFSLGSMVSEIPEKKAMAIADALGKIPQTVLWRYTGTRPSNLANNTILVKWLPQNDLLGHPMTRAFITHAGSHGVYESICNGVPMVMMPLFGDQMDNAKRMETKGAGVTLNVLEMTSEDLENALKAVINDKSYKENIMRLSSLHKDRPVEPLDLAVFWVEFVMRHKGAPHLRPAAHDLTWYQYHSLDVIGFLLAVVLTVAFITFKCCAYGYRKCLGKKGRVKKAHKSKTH
Briefly: UGT1A6-catalyzed glucuronidation, enzyme kinetics.

Substrate in data set [4]: Cc1cc(=O)oc2cc(O)ccc12
Briefly: purified protein, by the assay type. The conditions noted are these: pH 7.4.

Substrate in data set [5]: Oc1cccc2ccccc12
The data set is described as follows: purified protein, by the assay type. The conditions noted are these: pH 7.4.

Substrate in data set [6]: Cc1cc(=O)oc2cc(O)ccc12
The data set is described as follows: not read. To be noted: other: No BSA, pH 7.4.

Substrate in data set [7]: Oc1ccc2cc[nH]c2c1
Briefly: not read. To be noted: other: No BSA, pH 7.4.

Several values for one entry are separate records, joined by “and”; a condition that tells them apart may be missing. Equal entries are not always repeated. Where two headings read alike, the source gives them in different places.

T1 sequence (P02769 25-607): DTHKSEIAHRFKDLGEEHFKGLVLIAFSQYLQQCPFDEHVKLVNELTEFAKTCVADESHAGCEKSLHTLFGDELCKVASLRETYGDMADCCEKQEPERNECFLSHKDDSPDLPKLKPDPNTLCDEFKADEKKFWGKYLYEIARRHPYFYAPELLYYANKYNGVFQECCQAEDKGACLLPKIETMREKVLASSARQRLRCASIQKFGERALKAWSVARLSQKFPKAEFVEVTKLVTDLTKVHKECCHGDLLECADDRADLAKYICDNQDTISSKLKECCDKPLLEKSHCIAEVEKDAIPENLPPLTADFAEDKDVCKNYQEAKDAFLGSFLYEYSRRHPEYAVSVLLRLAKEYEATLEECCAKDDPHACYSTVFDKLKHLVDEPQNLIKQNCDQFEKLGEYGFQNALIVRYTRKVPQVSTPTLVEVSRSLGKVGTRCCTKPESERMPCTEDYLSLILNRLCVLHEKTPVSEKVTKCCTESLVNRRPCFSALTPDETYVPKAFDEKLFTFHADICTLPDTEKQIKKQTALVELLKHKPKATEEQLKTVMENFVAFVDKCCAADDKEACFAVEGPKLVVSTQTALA

Broadly, the fraction unbound is free concentration divided by total concentration. Lower therefore signals little free substance. `C[C@]12CC[C@@H]3c4ccc(O)cc4CC[C@H]3[C@@H]1CC[C@@H]2O` [17β-Estradiol, 17β-estradiol] yielded a fraction unbound at 8 h on BSA [1] of 0.48 ± 0.01. Further, in data set [2], the “binding to control insect cell membrane” value is on record as “negligible”. Moreover, the “V max ± S.E.” value on UGT2B17 was 0.013±0.0002(0.0125–0.0132) nmol•min^–1•mg^–1; on UGT1A8, 0.020±0.0003(0.019–0.021) nmol•min^–1•mg^–1. Further, the “K m or S 50 ± S.E.” value was 4.70±0.62 ^**(3.42–5.99) µM at UGT1A8 (0.1% BSA, substrate concentration corrected for binding to BSA, 17β-estradiol: 3-glucuronide formation); 7.84±1.62(4.48–11.21) µM at UGT1A1; 9.06±1.14(6.70–11.42) µM at UGT1A1 (0.1% BSA, substrate concentration corrected for binding to BSA, estradiols: 3-glucuronide formation). For the same molecule, the “f u (unbound fraction)” value on BSA [3] is listed as 0.04.

For the molecule `Oc1cccc2ccccc12` [1-Naphthol, 1-naphthol], the “K m or S 50 ± S.E.” value on UGT1A6 (0.1% BSA, substrate concentration corrected for binding to BSA) is 5.25±0.23 ^***(4.78–5.72) µM; at UGT1A6 (No BSA), 8.07±0.48(7.08–9.06) µM; at UGT2B17 it was 540±26(485–595) µM and 484±27(427–541) µM; at UGT1A8, 91.6±6.6(78.0–105.3) µM and 105±16(73–137) µM; at UGT1A1, 101±11(78–123) µM and 81.6±5.1(71.0–92.1) µM. The “V max ± S.E.” value on UGT1A6 (No BSA, expression level-normalized) was 6.7±0.1(6.47–6.94) nmol•min^–1•mg^–1; on UGT2B17 it was 0.28±0.01(0.26–0.31) nmol•min^–1•mg^–1; on UGT1A8, 2.5±0.1(2.3–2.7) nmol•min^–1•mg^–1; on UGT1A1, 0.11±0.01(0.10–0.13) nmol•min^–1•mg^–1.

B1: UGT2B17 (Homo sapiens) (protein)
chain: T2 sequence (O75795 24-530)
A word on the Vmax: it is the rate approached at saturating substrate. Consider B1, for which the K0.5 in [4] is on record as 377±42(291–463) uM; in data set [5], 540±26(485–595) uM. Also, the Vmax in data set [4] turned out to be 5e-05 µmol/min/mg.

B2: UGT2A1 (Homo sapiens) (protein)
chain: GNVLIWPMEGSHWLNVKIIIDELIKKEHNVTVLVASGALFITPTSNPSLTFEIYKVPFGKERIEGVIKDFVLTWLENRPSPSTIWRFYQEMAKVIKDFHMVSQEICDGVLKNQQLMAKLKKSKFEVLVSDPVFPCGDIVALKLGIPFMYSLRFSPASTVEKHCGKVPYPPSYVPAVLSELTDQMSFTDRIRNFISYHLQDYMFETLWKSWDSYYSKALGGLLLCCPGWSAVADLGSLQPLLPGFKRFSRLSLHCSWDYRLPAGRPTTLCETMGKAEIWLIRTYWDFEFPRPYLPNFEFVGGLHCKPAKPLPKVLWRYKGKKPATLGNNTQLFDWIPQNDLLGHPKTKAFITHGGTNGIYEAIYHGVPMVGVPMFADQPDNIAHMKAKGAAVEVNLNTMTSVDLLSALRTVINEPSYKENAMRLSRIHHDQPVKPLDRAVFWIEFVMRHKGAKHLRVAAHDLTWFQYHSLDVIGFLLVCVTTAIFLVIQCCLFSCQKFGKIGKKKKRE
Regarding B2, in “not read [6]”, the K0.5 is given as 48.1±4.8(38.2–57.9) µM and the Vmax was found to be 0.0021 µmol/min/mg. In the data set “not read [7]”, the K0.5 was 1474±121(1223–1724) µM and the Vmax was 0.00079 µmol/min/mg.

B3: UGT2B4 (Homo sapiens) (protein)
chain: GKVLVWPTEFSHWMNIKTILDELVQRGHEVTVLASSASISFDPNSPSTLKFEVYPVSLTKTEFEDIIKQLVKRWAELPKDTFWSYFSQVQEIMWTFNDILRKFCKDIVSNKKLMKKLQESRFDVVLADAVFPFGELLAELLKIPFVYSLRFSPGYAIEKHSGGLLFPPSYVPVVMSELSDQMTFIERVKNMIYVLYFEFWFQIFDMKKWDQFYSEVLGRPTTLSETMAKADIWLIRNYWDFQFPHPLLPNVEFVGGLHCKPAKPLPKEMEEFVQSSGENGVVVFSLGSMVSNTSEERANVIASALAKIPQKVLWRFDGNKPDTLGLNTRLYKWIPQNDLLGHPKTRAFITHGGANGIYEAIYHGIPMVGVPLFADQPDNIAHMKAKGAAVSLDFHTMSSTDLLNALKTVINDPLYKENAMKLSRIHHDQPVKPLDRAVFWIEFVMRHKGAKHLRVAAHDLTWFQYHSLDVTGFLLACVATVIFIITKCLFCVWKFVRTGKKGKRD
Turning to B3, the values for the K0.5 in [4] and in data set [5] were 298±43(210–387) uM and 210±12(186–235) uM, respectively.
